Reference: patent publication US20240384268A1, “Oligonucleotides” (Hudson Institute of Medical Research, priority 2021, published 2024)
Entries after “also recorded” stand apart in the source; their conditions may differ. In the oligonucleotide strings, read from the 5' end, every base follows the letter of its sugar. An asterisk marks phosphorothioate; unmarked linkages are phosphodiester. Other units and linkages are bracketed, terminal groups are in braces. A string of capitals states the bases alone. d = 2'-deoxy (DNA); m = 2'-O-methyl

Tests used:
[1] = target: T1, TLR2/1 (Mus musculus, UniProt Q9EPQ1+Q9QUN7); test: PAM3CSK4-driven TNF-α in immortalised mouse BMDMs; assay type: cell-based; conditions: iBMDMs; 500 nM ASO 6 h; PAM3C 100 ng/ml
T1 construct: endogenous in cells; host or cells: immortalised wild-type mouse BMDMs

[2] = target: T2, cGAS (Homo sapiens, UniProt Q8N884); test: ISD70-driven IP-10 production in HT-29 cells, ELISA; assay type: cell-based; design: endogenous in cells; conditions: ISD70 24 h
Method: In such examples, inhibition of cGAS activity can be identified by observation of an overall decreased cGAS response of the cell population, or a lower proportion of cells having cGAS-positive activity as compared to positive control condition in which cells are treated with cGAS agonist in the absence of the oligonucleotide (or in the presence of an appropriate control inhibitory agent). In one example, THP-1 or HT-29 cells are transfected with ISD70 and incubated with an oligonucleotide. cGAS activity can then be determined by cytokine (e.g., IP-10 and/or IFNβ) expression (e.g., gene and/or protein expression) and/or secretion levels, such as by ELISA. A similar assay can be performed with LL171 cells transfected with ISD45. […] By way of example, cGAS enzymatic activity may be assessed in vitro using recombinant cGAS and then measuring activity thereof by way of a cGAMP ELISA.
For cGAS stimulations, cells were treated for indicated duration with ASOs, prior to transfection with ISD70 (human cells) or ISD45 (mouse cells) (the ASOs were not washed off prior to ISD transfection unless otherwise indicated). The cGAS ligands ISD45 (Stetson and Medzhitov, 2006) and ISD70 (also known as VACV-70 (Unterholzner et al., 2010)) (Table 1) were resuspended as follows: 5 1d of sense and 5 μl of antisense strands at 10 μg/μl were added to 90 μl PBS under sterile conditions, heated at 75° C. for 30 min, prior to letting cool down at room temperature and aliquoting (stock at 1 μg/1 l). The ISDs were transfected at a concentration of […] at a ratio of 1 μg:1 μl with Lipofectamine 2000 in Opti-MEM (Thermo Fisher Scientific). HEK-TLR3, HEK-TLR7 and […] were treated with indicated concentration of ASOs for 20-50 min, prior to stimulation with poly(I:C) (Invivogen), R848 (Invivogen), Motolimod (MedChemExpress) and the Class B CpG oligonucleotides ODN 2006 (synthesised by IDT and resuspended in RNase-free TE buffer [Table 1]), respectively. The TLR2/1 agonist PAM3CSK4 (Invivogen), the TLR4 agonist lipopolysaccharide (Invivogen), the Class B CpG oligonucleotides ODN 1826 (synthesised by IDT and resuspended in RNase-free TE buffer), the mouse Sting agonist DMXAA (Cayman) and the human STING agonist (compound #3 from (Raanjulu et al., 2018), referred to as GSK herein—kind gift from Cancer Therapeutics CRC, Australia) were used at indicated concentrations. Aspirin (Sigma—A2093) was resuspended in pure medium to 10 mM, filter sterilised and added to the cells at 2 mM final. All ASOs were synthesised by Integrated DNA Technologies (IDT), and resuspended in RNase-free TE buffer, pH 8.0 (Thermo Fisher Scientific). Cell viability was assessed by adding 1× fresh resazurin solution to the wells (10λ solution made up with 7 mg resazurin [Sigma—R7017] dissolved in 3.5 ml PBS, sterile filtered at […]) for 4 h, prior to reading at with a Fluostar OPTIMA (BMG LABTECH) plate-reader (fluorescence: Excitation 535 nm, Emission 590); wells with medium only and 1× resazurin were used as blanks.
Human IP-10 and IFN-β levels were measured using supernatants from the different cultures and were quantified using IP-10 (BD Biosciences, #550926) or IFN-β (PBL assay science, #41415-1) ELISA kits respectively, according to the manufacturers' protocol. Tetramethylbenzidine substrate (Thermo Fisher Scientific) was used for quantification of the cytokines on a Fluostar OPTIMA (BMG LABTECH) plate-reader.

[3] = system: THP-1 and HT-29 cells; test: Cell viability, resazurin; conditions: THP-1 100 nM, HT-29 187.5 nM; 6 h, with or without ISD70 overnight
[4] = target: T2, cGAS; test: IFN-driven gene expression in BJ hTERT SV40T fibroblasts (constitutive cGAS activation), RT-qPCR; conditions: ASO transfected 20-100 nM overnight
[5] = target: T3, mouse Tlr9 (Mus musculus, UniProt Q9EQU3); test: ODN 1826-driven TNF-α in immortalised mouse BMDMs; assay type: cell-based; conditions: iBMDMs; 250-500 nM ASO; ODN 1826 500 nM overnight; listed as C2-Mutl
T3 construct: endogenous in cells; host or cells: immortalised wild-type mouse BMDMs
T3 sequence (Q9EQU3 26-1032): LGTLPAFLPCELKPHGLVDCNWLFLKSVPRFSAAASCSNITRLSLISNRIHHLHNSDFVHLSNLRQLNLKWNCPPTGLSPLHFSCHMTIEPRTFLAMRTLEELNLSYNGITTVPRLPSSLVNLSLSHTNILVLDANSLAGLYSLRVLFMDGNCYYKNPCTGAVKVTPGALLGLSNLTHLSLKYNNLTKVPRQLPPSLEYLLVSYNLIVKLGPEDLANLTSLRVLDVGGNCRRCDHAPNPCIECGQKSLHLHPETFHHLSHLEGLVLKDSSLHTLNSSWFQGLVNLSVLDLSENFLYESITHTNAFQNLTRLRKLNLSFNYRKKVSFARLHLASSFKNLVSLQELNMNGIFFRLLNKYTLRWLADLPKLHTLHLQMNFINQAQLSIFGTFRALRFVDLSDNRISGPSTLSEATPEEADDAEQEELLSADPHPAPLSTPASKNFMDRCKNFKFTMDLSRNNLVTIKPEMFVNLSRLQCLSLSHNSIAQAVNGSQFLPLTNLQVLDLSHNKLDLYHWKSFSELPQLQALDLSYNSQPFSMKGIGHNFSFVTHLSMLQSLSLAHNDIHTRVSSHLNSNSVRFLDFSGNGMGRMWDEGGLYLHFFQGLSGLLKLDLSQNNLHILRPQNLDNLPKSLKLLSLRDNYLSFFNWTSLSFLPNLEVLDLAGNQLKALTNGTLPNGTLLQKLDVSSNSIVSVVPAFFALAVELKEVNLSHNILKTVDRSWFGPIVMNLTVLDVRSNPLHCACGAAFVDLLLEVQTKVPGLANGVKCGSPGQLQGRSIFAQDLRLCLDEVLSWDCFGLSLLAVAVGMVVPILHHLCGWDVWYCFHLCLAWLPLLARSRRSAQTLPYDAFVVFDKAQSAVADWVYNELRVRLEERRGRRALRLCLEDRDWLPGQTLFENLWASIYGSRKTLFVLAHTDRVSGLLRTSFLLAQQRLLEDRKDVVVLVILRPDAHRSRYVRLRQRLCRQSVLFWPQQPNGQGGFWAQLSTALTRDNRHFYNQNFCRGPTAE

T2 sequence (Q8N884 whole entry): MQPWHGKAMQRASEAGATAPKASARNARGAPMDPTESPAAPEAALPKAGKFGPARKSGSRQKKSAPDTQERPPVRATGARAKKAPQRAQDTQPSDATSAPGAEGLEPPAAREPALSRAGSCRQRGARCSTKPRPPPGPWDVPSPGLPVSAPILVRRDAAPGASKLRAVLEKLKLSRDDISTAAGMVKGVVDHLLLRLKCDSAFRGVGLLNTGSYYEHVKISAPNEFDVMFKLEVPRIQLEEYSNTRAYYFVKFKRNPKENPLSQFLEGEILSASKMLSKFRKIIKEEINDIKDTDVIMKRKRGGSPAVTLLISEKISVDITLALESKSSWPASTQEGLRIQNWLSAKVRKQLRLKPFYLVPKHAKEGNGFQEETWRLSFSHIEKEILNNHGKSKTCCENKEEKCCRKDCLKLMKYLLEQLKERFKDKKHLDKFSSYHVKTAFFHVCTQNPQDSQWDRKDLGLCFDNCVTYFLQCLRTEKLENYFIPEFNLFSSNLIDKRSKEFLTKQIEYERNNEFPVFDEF
T1 sequence (Q9QUN7 25-784): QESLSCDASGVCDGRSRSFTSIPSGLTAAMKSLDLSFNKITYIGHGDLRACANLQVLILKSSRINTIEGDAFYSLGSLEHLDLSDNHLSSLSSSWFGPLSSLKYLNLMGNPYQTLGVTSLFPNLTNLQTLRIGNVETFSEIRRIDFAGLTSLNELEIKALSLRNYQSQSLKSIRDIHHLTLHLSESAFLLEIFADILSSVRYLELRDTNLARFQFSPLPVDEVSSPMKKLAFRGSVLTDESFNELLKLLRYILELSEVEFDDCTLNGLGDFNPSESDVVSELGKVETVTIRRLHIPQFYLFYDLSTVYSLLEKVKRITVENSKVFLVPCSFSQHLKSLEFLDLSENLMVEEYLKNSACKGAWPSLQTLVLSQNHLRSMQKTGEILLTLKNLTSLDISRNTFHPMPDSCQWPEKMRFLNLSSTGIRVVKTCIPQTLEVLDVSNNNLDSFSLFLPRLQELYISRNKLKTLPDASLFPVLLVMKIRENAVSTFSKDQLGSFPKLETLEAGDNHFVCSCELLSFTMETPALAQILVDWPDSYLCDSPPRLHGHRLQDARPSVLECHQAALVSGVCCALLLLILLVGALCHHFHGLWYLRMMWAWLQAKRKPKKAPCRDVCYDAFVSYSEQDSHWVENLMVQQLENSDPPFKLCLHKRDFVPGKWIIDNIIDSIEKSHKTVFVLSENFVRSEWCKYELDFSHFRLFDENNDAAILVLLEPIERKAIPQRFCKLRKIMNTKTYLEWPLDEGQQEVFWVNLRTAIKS
T1 sequence (Q9EPQ1 26-795): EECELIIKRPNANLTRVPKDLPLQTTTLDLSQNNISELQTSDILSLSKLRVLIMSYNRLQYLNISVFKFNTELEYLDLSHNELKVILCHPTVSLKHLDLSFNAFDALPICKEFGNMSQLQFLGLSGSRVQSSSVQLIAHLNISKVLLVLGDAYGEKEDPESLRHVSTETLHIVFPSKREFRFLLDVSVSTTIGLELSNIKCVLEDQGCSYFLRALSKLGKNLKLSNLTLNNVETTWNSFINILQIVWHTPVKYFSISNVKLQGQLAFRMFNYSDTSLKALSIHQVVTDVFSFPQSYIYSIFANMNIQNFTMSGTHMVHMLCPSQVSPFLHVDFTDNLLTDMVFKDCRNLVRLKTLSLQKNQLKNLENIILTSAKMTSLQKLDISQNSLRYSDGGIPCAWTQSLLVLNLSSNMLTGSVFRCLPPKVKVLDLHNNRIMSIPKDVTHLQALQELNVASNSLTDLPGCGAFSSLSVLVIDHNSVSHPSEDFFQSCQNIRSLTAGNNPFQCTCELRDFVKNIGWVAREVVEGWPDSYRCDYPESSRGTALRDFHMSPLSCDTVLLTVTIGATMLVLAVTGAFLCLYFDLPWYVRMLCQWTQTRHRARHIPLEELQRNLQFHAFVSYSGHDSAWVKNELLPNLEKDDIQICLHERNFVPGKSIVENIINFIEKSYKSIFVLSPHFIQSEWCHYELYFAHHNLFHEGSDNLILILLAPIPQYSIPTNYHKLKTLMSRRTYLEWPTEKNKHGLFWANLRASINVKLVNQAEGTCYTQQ

mG*mC*mG*mG*mU*A*T*C*C*A*T*G*T*C*C*mC*mA*mG*mG*mC (mG*mC*mG*mG*mU*dA*dT*dC*dC*dA*dT*dG*dT*dC*dC*mC*mA*mG*mG*mC; antisense) [C2-Mut1]
TNF-α production upon PAM3CSK4 (in words) [1]: did not impact production of TNF-α | inhibition of ISD70-dependent IP-10 production (in words) ([2]; 187.5 nM ASO overnight): most inhibitory sequence of ISD70 sensing | effect on ISD70-induced IP-10 production at low dose (in words) ([2]; ASO overnight at 125 nM (62.5-125 nM)): increased inhibitory activity | cell viability [3]: did not significantly impact cell viability | inhibition of constitutively expressed ISGs (IFIT1, IFIT2, IFI44; in words) [4]: significantly more potent than its two nucleotide variant C2-Mut1v3 | inhibition of mouse TLR9 sensing of CpG ODN (TNF-α; in words) [5]: significantly decreased sensing of the CpG ODN 1826; also recorded: very potent inhibitor of mouse TLR9
